Measured values taken from patent US20090263838A1, “Method for determining a lung cancer treatment and method for determining the effectiveness of an agent for treatment of lung cancer” (Sanko Junyaku Co., Ltd., priority 2008, published 2009).
Like-named read-outs stand apart in the source and are kept apart here.

Test system: non-small cell lung cancer (NSCLC) patients
Description: Potential factors linked to survival such as age, gender, performance status, smoking history, tumor histology, number of prior chemotherapy regimen, and presence of distant metastasis were also reviewed for each patient. Pretreatment interstitial lung disease was diagnosed using a high resolution computed tomography scan of the chest by diagnostic radiologists blinded to any clinical information.
The tumor response was assessed as complete response (CR), partial response (PR), no change (NC), or progressive disease (PD) according to the World Health Organization Criteria.
The cut-off level of KL-6 was set at 500 U/ml based on the levels of healthy individuals as reported previously.
Genomic DNAs were extracted from frozen or paraffin embedded specimens and the mutational status of the EGFR tyrosine kinase domain (through exons 18 to 21) was examined by the direct sequence method as described previously. In brief, the PCR amplification for extracted DNAs was done using HotStarTaq DNA polymerase (Qiagen Inc., Valencia, Calif.) with the specific primers and PCR conditions. PCR products were incubated using ExoSAP-IT (Amersham Biosciences Corp., Piscataway, N.J.) and then it was sequenced directly using the Applied Biosystems PRISM dye terminator cycle sequencing method (Perkin-Elmer Corp., Foster City, Calif.) with ABI PRISM 3100 Genetic Analyzer (Applied Biosystems, Foster City, Calif.).
The associations between various clinical factors were evaluated using either the χ^2 test or the Fisher's exact test. […] The progression-free and overall survival times were both calculated using the Kaplan-Meier method; different groups were compared using the log-rank test. Associations of various factors with survival were evaluated using the backward stepwise Cox regression analysis. Differences were considered to be statistically significant if the p value was less than 0.05.

[1] = patients with elevated KL-6 (≧500 U/ml)
[2] = patients with normal range of KL-6

## COc1cc2ncnc(Nc3ccc(F)c(Cl)c3)c2cc1OCCCN1CCOCC1 [gefitinib]
All 41 NSCLC patients
  complete response (CR), number of patients: One
  early discontinuance of gefitinib (less than 2 weeks) because of rapid tumor progression: 3 (7%) patients
  no change (NC), number of patients: 20 patients
  partial response (PR), number of patients: ten
  progressive disease (PD), number of patients: 10 patients
All 41 NSCLC patients, gefitinib 250 mg daily oral, WHO criteria
  overall objective response rate: 26.8%
All 41 patients
  1-year survival rate: 61.0%
  2-year survival rate: 29.8%
  median overall survival time: 13.9 months
  median progression-free survival time: 4.7 months
All 41 patients, during the study period
  severe interstitial lung disease or treatment-related death due to gefitinib treatment: neither severe interstitial lung disease nor treatment-related death occurred
Patients with an EGFR mutation
  overall survival: 17.8 months
[1]
  median overall survival time: 8.5 months
  median progression-free survival time: 2.1 months
Patients with elevated serum KL-6 levels (≧500 U/ml)
  response to gefitinib: 23%
[2]
  median overall survival time: 21.1 months
  median progression-free survival time: 5.8 months
Patients with wild-type EGFR
  overall survival: 8.5 months
Patients with wild-type EGFR and elevated serum KL-6
  median survival time: 6.5 months
Patients with wild-type EGFR and normal range of KL-6
  median survival time: 13.3 months
Patients without elevated serum KL-6 levels
  response to gefitinib: 32%
